Laboratory results reported in US20260070945A1, “MACROCYCLIC IMMUNOMODULATORS” (Bristol-Myers Squibb Company, priority 2022, published 2026).
*1 amine or outer side, *2 acyl side, *3 side chain or, on linkers, in order; H or OH if unused. Where a SMILES comes first, the peptide text is derived from it. Bridges are numbered along the chain shown (N, C = ends). [ ]: non-standard residue; d: D form. The star is where a group is joined. ξ: configuration not given here. Phe(4-COOH) = N[C@@H](Cc1ccc(C(=O)O)cc1)C(=O)O; Bip = N[C@@H](Cc1ccc(-c2ccccc2)cc1)C(=O)O; Phe(3-Me) = Cc1cccc(C[C@H](N)C(=O)O)c1; NMeAEEA = CN(CCOCCOCC(=O)[*:2])[*:1]; 4Pal = N[C@@H](Cc1ccncc1)C(=O)O; Aad = N[C@@H](CCCC(=O)O)C(=O)O; Cha = N[C@@H](CC1CCCCC1)C(=O)O; Cit = NC(=O)NCCC[C@H](N)C(=O)O; Thr(3ξ) = CC(O)[C@H](N)C(=O)O; hSer = N[C@@H](CCO)C(=O)O; Carboxymethyl = O=C(O)C*; NMeA = CN[C@@H](C)C(=O)O; Orn = NCCC[C@H](N)C(=O)O; Aun = NCCCCCCCCCCC(=O)O; Dab = NCC[C@H](N)C(=O)O; AEEA = NCCOCCOCC(=O)O

These molecules were tested against T1, PD-1/PD-L1 interaction (PE-labeled human PD-L1-Ig binding to Jurkat cell line over-expressing human PD-1) (Homo sapiens, UniProt Q15116) (assay: Jurkat-PD-1 Cell Binding High-Content Screening Assay (CBA)). Conditions: Jurkat-hPD-1 cells, PE-labeled PD-L1-Ig 20 nM final; read-out: Jurkat HPD1 PDL1 IC50.
T1 construct: expressed in transfected cells; host or cells: Jurkat
T1 sequence (Q15116 25-288): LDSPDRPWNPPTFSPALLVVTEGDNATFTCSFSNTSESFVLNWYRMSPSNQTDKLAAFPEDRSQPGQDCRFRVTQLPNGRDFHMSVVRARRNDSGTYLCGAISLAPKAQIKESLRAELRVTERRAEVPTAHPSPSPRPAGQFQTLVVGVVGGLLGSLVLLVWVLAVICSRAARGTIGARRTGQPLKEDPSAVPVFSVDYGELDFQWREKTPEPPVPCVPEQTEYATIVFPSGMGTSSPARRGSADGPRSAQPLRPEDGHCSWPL
Outline: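 Read-out: high-content imaging of cell-bound PE fluorescence, with Hoechst 33342 nuclear counterstain after paraformaldehyde fixation. Before labeled ligand (20 nM final, 1 h) was added, compound sat on the cells for 2 h at 37 °C in DMEM/10% FCS.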
For `Cc1cccc(C[C@@H]2NC(=O)[C@H](CC(=O)O)NC(=O)[C@H](Cc3ccc(C(=O)O)cc3)NC(=O)[C@H](Cc3ccc(OCC(=O)O)cc3)NC(=O)CSC[C@@H](C(=O)N[C@@H](CCN)C(=O)NCCCCCCCCCCC(=O)O)NC(=O)[C@H](CCCC(=O)O)NC(=O)[C@H](C(C)C)NC(=O)[C@H](CC3CCCCC3)NC(=O)[C@H](CCN)NC(=O)[C@@H](CC(C)C)NC(=O)[C@H](C)N(C)C(=O)[C@H](C(C)C)NC(=O)[C@H](Cc3ccc(-c4ccccc4)cc3)NC(=O)[C@H](C(C)C)NC2=O)c1` [Example 2214] ({CH2CO}-Y(Carboxymethyl)[Phe(4-COOH)]D[Phe(3-Me)]V[Bip]V[NMeA][dL][Dab][Cha]V[Aad]C[Dab][Aun]-OH; thioether N-14), the IC50 was 16.3 nM.
In the case of `Cc1cccc(C[C@@H]2NC(=O)[C@H](CC(=O)O)NC(=O)[C@H](Cc3c[nH]cn3)NC(=O)[C@H](Cc3ccc(OCC(=O)O)cc3)NC(=O)CSC[C@@H](C(=O)N[C@@H](CCN)C(=O)NCCCCCCCCCCC(=O)O)NC(=O)[C@H](CCCC(=O)O)NC(=O)[C@H](C(C)C)NC(=O)[C@H](CC3CCCCC3)NC(=O)[C@H](CCN)NC(=O)[C@@H](CC(C)C)NC(=O)[C@H](C)N(C)C(=O)[C@H](C(C)C)NC(=O)[C@H](Cc3ccc(-c4ccccc4)cc3)NC(=O)[C@H](C(C)C)NC2=O)c1` [Example 2215] ({CH2CO}-Y(Carboxymethyl)HD[Phe(3-Me)]V[Bip]V[NMeA][dL][Dab][Cha]V[Aad]C[Dab][Aun]-OH; thioether N-14), the IC50 is reported as 9.2 nM.
`Cc1cccc(C[C@@H]2NC(=O)[C@H](CC(=O)O)NC(=O)[C@H](Cc3ccc(C(=O)O)cc3)NC(=O)[C@H](Cc3ccc(OCC(=O)O)cc3)NC(=O)CSC[C@@H](C(=O)NCCCCCCCCCCC(=O)O)NC(=O)[C@H](CCCNC(N)=O)NC(=O)[C@H](C(C)C)NC(=O)[C@H](CC3CCCCC3)NC(=O)[C@H](CCN)NC(=O)[C@@H](CC(C)C)NC(=O)[C@H](C)N(C)C(=O)[C@H](C(C)C)NC(=O)[C@H](Cc3ccc(-c4ccccc4)cc3)NC(=O)[C@H](C(C)C)NC2=O)c1` [Example 2216] ({CH2CO}-Y(Carboxymethyl)[Phe(4-COOH)]D[Phe(3-Me)]V[Bip]V[NMeA][dL][Dab][Cha]V[Cit]C[Aun]-OH; thioether N-14) showed an IC50 of 13.9 nM.
Molecule `Cc1cccc(C[C@@H]2NC(=O)[C@H](CC(=O)O)NC(=O)[C@H](Cc3ccc(C(=O)O)cc3)NC(=O)[C@H](Cc3ccc(OCC(=O)O)cc3)NC(=O)CSC[C@@H](C(=O)NCCOCCOCC(=O)NCCCCCCCCCCC(=O)O)NC(=O)[C@H](CCO)NC(=O)[C@H](C(C)C)NC(=O)[C@H](CC3CCCCC3)NC(=O)[C@H](CCN)NC(=O)[C@@H](CC(C)C)NC(=O)[C@H](C)N(C)C(=O)[C@H](C(C)C)NC(=O)[C@H](Cc3ccc(-c4ccccc4)cc3)NC(=O)[C@H](C(C)C)NC2=O)c1` [Example 2217] ({CH2CO}-Y(Carboxymethyl)[Phe(4-COOH)]D[Phe(3-Me)]V[Bip]V[NMeA][dL][Dab][Cha]V[hSer]C[AEEA][Aun]-OH; thioether N-14) has an IC50 of 11.5 nM.
`Cc1cccc(C[C@@H]2NC(=O)[C@H](CC(=O)O)NC(=O)[C@H](Cc3ccc(OCC(=O)O)cc3)NC(=O)[C@H](Cc3ccncc3)NC(=O)CSC[C@@H](C(=O)NCCOCCOCC(=O)NCCCCCCCCCCC(=O)O)NC(=O)[C@H](CCCN)NC(=O)[C@H](C(C)C)NC(=O)[C@H](CC3CCCCC3)NC(=O)[C@H](CCN)NC(=O)[C@@H](CC(C)C)NC(=O)[C@H](C)N(C)C(=O)[C@H](Cc3ccc(O)cc3)NC(=O)[C@H](Cc3ccc(-c4ccccc4)cc3)NC(=O)[C@H](CC(C)C)NC2=O)c1` [Example 2218] ({CH2CO}-[4Pal]Y(Carboxymethyl)D[Phe(3-Me)]L[Bip]Y[NMeA][dL][Dab][Cha]V[Orn]C[AEEA][Aun]-OH; thioether N-14) showed an IC50 of 33.3 nM.
Molecule `Cc1cccc(C[C@@H]2NC(=O)[C@H](CC(=O)O)NC(=O)[C@H](Cc3ccc(OCC(=O)O)cc3)NC(=O)[C@H](C(C)O)NC(=O)CSC[C@@H](C(=O)N(C)CCOCCOCC(=O)NCCCCCCCCCCC(=O)O)NC(=O)[C@H](CCCN)NC(=O)[C@H](C(C)C)NC(=O)[C@H](CC3CCCCC3)NC(=O)[C@H](CCN)NC(=O)[C@@H](CC(C)C)NC(=O)[C@H](C)N(C)C(=O)[C@H](C(C)C)NC(=O)[C@H](Cc3ccc(-c4ccccc4)cc3)NC(=O)[C@H](C(C)C)NC2=O)c1` (stereo partly drawn) [Example 2219] ({CH2CO}-[Thr(3ξ)]Y(Carboxymethyl)D[Phe(3-Me)]V[Bip]V[NMeA][dL][Dab][Cha]V[Orn]C[NMeAEEA][Aun]-OH; thioether N-14) has an IC50 of 6.2 nM.
With `CC(=O)NCCCC[C@@H]1NC(=O)[C@H](C(C)C)NC(=O)[C@H](CC2CCCCC2)NC(=O)[C@H](CCN)NC(=O)[C@@H](CC(C)C)NC(=O)[C@H](C)N(C)C(=O)[C@H](CCC(N)=O)NC(=O)[C@H](Cc2ccc(-c3ccccc3)cc2)NC(=O)[C@H](C(C)C)NC(=O)[C@H](Cc2cccc(C)c2)NC(=O)[C@H](CC(=O)O)NC(=O)[C@H](Cc2ccc(OCC(=O)O)cc2)NC(=O)[C@H](Cc2ccc(OCC(=O)O)cc2)NC(=O)CSC[C@@H](C(=O)N[C@@H](CCN)C(=O)NCCCCCCCCCCC(=O)O)NC1=O` [Example 2220] ({CH2CO}-Y(Carboxymethyl)Y(Carboxymethyl)D[Phe(3-Me)]V[Bip]Q[NMeA][dL][Dab][Cha]VK(Ac)C[Dab][Aun]-OH; thioether N-14) the IC50 was 10.1 nM.
In the case of `CC(=O)NCCCC[C@@H]1NC(=O)[C@H](C(C)C)NC(=O)[C@H](CC2CCCCC2)NC(=O)[C@H](CCN)NC(=O)[C@@H](CC(C)C)NC(=O)[C@H](C)N(C)C(=O)[C@H](CCO)NC(=O)[C@H](Cc2ccc(-c3ccccc3)cc2)NC(=O)[C@H](C(C)C)NC(=O)[C@H](Cc2cccc(C)c2)NC(=O)[C@H](CC(=O)O)NC(=O)[C@H](Cc2ccc(OCC(=O)O)cc2)NC(=O)[C@H](Cc2ccc(OCC(=O)O)cc2)NC(=O)CSC[C@@H](C(=O)N[C@@H](CCN)C(=O)NCCCCCCCCCCC(=O)O)NC1=O` [Example 2221] ({CH2CO}-Y(Carboxymethyl)Y(Carboxymethyl)D[Phe(3-Me)]V[Bip][hSer][NMeA][dL][Dab][Cha]VK(Ac)C[Dab][Aun]-OH; thioether N-14), the IC50 is reported as 11.6 nM.
For `CC(=O)NCCCC[C@@H]1NC(=O)[C@H](Cc2ccc(-c3ccccc3)cc2)NC(=O)[C@H](C(C)C)NC(=O)[C@H](Cc2cccc(C)c2)NC(=O)[C@H](CC(=O)O)NC(=O)[C@H](Cc2ccc(OCC(=O)O)cc2)NC(=O)[C@H](Cc2ccc(OCC(=O)O)cc2)NC(=O)CSC[C@@H](C(=O)NCCOCCOCC(=O)NCCCCCCCCCCC(=O)O)NC(=O)[C@H](CCO)NC(=O)[C@H](C(C)C)NC(=O)[C@H](CC2CCCCC2)NC(=O)[C@H](CCN)NC(=O)[C@@H](CC(C)C)NC(=O)[C@H](C)N(C)C1=O` [Example 2222] ({CH2CO}-Y(Carboxymethyl)Y(Carboxymethyl)D[Phe(3-Me)]V[Bip]K(Ac)[NMeA][dL][Dab][Cha]V[hSer]C[AEEA][Aun]-OH; thioether N-14), the IC50 was 10.6 nM.
For `CC(=O)NCCCC[C@@H]1NC(=O)[C@H](Cc2ccc(-c3ccccc3)cc2)NC(=O)[C@H](CC(C)C)NC(=O)[C@H](Cc2cccc(C)c2)NC(=O)[C@H](CC(=O)O)NC(=O)[C@H](Cc2ccc(OCC(=O)O)cc2)NC(=O)[C@H](Cc2ccc(OCC(=O)O)cc2)NC(=O)CSC[C@@H](C(=O)NCCOCCOCC(=O)NCCCCCCCCCCC(=O)O)NC(=O)[C@H](CCCCN)NC(=O)[C@H](C(C)C)NC(=O)[C@H](CC2CCCCC2)NC(=O)[C@H](CCN)NC(=O)[C@@H](CC(C)C)NC(=O)[C@H](C)N(C)C1=O` [Example 2223] ({CH2CO}-Y(Carboxymethyl)Y(Carboxymethyl)D[Phe(3-Me)]L[Bip]K(Ac)[NMeA][dL][Dab][Cha]VKC[AEEA][Aun]-OH; thioether N-14), the IC50 was 10.9 nM.
Work on `CC(=O)NCCCC[C@@H]1NC(=O)[C@H](Cc2ccc(-c3ccccc3)cc2)NC(=O)[C@H](C(C)C)NC(=O)[C@H](Cc2c[nH]c3ccccc23)NC(=O)[C@H](CC(=O)O)NC(=O)[C@H](Cc2ccc(OCC(=O)O)cc2)NC(=O)[C@H](Cc2ccc(OCC(=O)O)cc2)NC(=O)CSC[C@@H](C(=O)NCCOCCOCC(=O)NCCCCCCCCCCC(=O)O)NC(=O)[C@H](CCCCN)NC(=O)[C@H](C(C)C)NC(=O)[C@H](CC2CCCCC2)NC(=O)[C@H](CCN)NC(=O)[C@@H](CC(C)C)NC(=O)[C@H](C)N(C)C1=O` [Example 2224] ({CH2CO}-Y(Carboxymethyl)Y(Carboxymethyl)DWV[Bip]K(Ac)[NMeA][dL][Dab][Cha]VKC[AEEA][Aun]-OH; thioether N-14) yielded an IC50 of 5.7 nM.
`CC(C)C[C@@H]1NC(=O)[C@H](Cc2c[nH]c3ccccc23)NC(=O)[C@H](CC(=O)O)NC(=O)[C@H](Cc2ccc(C(=O)O)cc2)NC(=O)[C@H](Cc2ccc(OCC(=O)O)cc2)NC(=O)CSC[C@@H](C(=O)NCCOCCOCC(=O)NCCCCCCCCCCC(=O)O)NC(=O)[C@H](CO)NC(=O)[C@H](C(C)C)NC(=O)[C@H](CC2CCCCC2)NC(=O)[C@H](CCN)NC(=O)[C@@H](CC(C)C)NC(=O)[C@H](C)N(C)C(=O)[C@H](C(C)C)NC(=O)[C@H](Cc2ccc(-c3ccccc3)cc2)NC1=O` [Example 2225] ({CH2CO}-Y(Carboxymethyl)[Phe(4-COOH)]DWL[Bip]V[NMeA][dL][Dab][Cha]VSC[AEEA][Aun]-OH; thioether N-14) gave an IC50 of 9.7 nM.
`CC(C)C[C@@H]1NC(=O)[C@H](Cc2c[nH]c3ccccc23)NC(=O)[C@H](CC(=O)O)NC(=O)[C@H](Cc2ccc(C(=O)O)cc2)NC(=O)[C@H](Cc2ccc(OCC(=O)O)cc2)NC(=O)CSC[C@@H](C(=O)NCCOCCOCC(=O)NCCCCCCCCCCC(=O)O)NC(=O)[C@H](CCO)NC(=O)[C@H](C(C)C)NC(=O)[C@H](CC2CCCCC2)NC(=O)[C@H](CCN)NC(=O)[C@@H](CC(C)C)NC(=O)[C@H](C)N(C)C(=O)[C@H](CCC(N)=O)NC(=O)[C@H](Cc2ccc(-c3ccccc3)cc2)NC1=O` [Example 2226] ({CH2CO}-Y(Carboxymethyl)[Phe(4-COOH)]DWL[Bip]Q[NMeA][dL][Dab][Cha]V[hSer]C[AEEA][Aun]-OH; thioether N-14) was tested, and the IC50 was 26.7 nM.
